What is called IC50 is the midpoint of a concentration-inhibition curve.

The target in the first experiment is GCN2 kinase (Homo sapiens (Human), UniProt Q9P2K8). Nature of the experiment: GCN2 Enzyme Inhibition Assay (Transcreener ADP2 fluorescence polarization). Particulars: 280 μM ATP, 200 μM (RS)7 peptide, 4 nM GCN2, 25° C. It is filed as biochemical. As to the method: Compounds were screened for their ability to inhibit GCN2 kinase activity using a Transcreener® ADP^2 fluorescence polarization assay that detects ADP levels (BellBrook Labs, WI). Assays were carried out in a buffer consisting of 25 mM Tris-HCl (pH 7.5), 50 mM NaCl, 10 mM MgCl2 and 1 mM DTT. […] Assays were carried out at 25° C. in the presence of a (typical) final concentration of 4 nM GCN2 kinase. An assay buffer containing GCN2 kinase and (RS)7 was prepared. […] The plate was incubated for 10 minutes at 25° C. prior to the addition of 4.7 μL of ATP stock buffer to initiate the enzyme reaction. The reaction was allowed to proceed for 1 hour at 25° C., prior to the addition of 10 μL detection buffer (consisting of appropriate concentrations of ADP^2 antibody and ADP Alexa633 tracer in 1× stop and detect buffer as supplied by BellBrook Labs). […] Percentage inhibition of enzyme activity was then calculated at each compound dose. IC50 and Ki(app) (using known assay and kinetic parameters) values were calculated from percentage inhibition data using a non-linear, tight-binding algorithm. All data analysis was undertaken using the Screener® software package (Genedata, Switzerland).
Sequence of GCN2 kinase (Q9P2K8 whole entry): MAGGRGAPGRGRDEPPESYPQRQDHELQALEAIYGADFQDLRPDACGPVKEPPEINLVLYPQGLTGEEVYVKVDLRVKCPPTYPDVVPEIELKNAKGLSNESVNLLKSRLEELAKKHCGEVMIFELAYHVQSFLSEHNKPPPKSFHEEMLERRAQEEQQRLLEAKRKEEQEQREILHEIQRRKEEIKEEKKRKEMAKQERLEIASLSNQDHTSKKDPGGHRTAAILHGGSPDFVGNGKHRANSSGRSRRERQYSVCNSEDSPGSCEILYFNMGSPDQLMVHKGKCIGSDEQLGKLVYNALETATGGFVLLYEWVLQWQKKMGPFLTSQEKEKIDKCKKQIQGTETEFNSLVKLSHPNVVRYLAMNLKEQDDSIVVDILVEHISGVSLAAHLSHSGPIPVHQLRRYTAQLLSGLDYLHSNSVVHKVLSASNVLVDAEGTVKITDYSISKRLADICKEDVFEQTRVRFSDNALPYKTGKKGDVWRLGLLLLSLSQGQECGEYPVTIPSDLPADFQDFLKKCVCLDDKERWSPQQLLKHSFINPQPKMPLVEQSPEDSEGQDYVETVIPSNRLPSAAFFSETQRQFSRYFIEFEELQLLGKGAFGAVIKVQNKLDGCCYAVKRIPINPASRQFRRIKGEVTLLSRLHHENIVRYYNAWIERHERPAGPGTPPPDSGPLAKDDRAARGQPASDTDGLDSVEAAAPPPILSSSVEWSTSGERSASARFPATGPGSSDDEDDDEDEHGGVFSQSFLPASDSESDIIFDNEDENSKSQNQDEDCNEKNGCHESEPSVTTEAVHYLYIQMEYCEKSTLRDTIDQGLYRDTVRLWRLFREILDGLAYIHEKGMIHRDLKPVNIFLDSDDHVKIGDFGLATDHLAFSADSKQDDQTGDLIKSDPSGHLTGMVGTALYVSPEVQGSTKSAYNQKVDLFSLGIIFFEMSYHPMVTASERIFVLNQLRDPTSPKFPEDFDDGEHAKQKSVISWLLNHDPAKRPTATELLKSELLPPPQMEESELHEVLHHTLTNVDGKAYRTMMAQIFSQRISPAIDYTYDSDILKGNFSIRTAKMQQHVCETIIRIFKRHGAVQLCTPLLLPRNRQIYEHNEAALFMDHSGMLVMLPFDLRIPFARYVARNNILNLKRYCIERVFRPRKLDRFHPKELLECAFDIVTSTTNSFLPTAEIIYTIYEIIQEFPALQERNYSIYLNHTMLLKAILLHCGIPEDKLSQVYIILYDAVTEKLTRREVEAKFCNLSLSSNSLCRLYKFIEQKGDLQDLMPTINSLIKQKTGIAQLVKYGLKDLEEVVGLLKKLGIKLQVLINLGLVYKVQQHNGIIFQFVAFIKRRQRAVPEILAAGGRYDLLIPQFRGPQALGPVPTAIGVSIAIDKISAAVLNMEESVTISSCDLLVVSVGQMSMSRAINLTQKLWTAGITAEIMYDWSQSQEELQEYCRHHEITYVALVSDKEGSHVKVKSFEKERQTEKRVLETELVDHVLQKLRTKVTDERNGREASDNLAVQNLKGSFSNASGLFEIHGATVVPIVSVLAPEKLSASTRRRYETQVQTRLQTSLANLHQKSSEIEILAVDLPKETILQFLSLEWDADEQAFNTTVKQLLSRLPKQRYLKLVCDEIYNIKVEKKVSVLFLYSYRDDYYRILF
`Cc1noc([C@@H]2CN(c3ccnc(-c4cnc5ccc(C(F)F)cn45)n3)C[C@H](C)O2)n1` [I-498, (2S,6S)-4-(2-(6-(difluoromethyl)imidazo[1,2-a]pyridin-3-yl)pyrimidin-4-yl)-2-methyl-6-(3-methyl-1,2,4-oxadiazol-5-yl)morpholine] gave an IC50 of 10 to 100 nM.
In turn, `Cc1nn(C)cc1[C@H]1CN(c2nccc(-c3cnc4ccc(C(F)(F)F)cn34)n2)C[C@@H](C)O1` [I-158, (2S,6R)-2-(1,3-dimethyl-1H-pyrazol-4-yl)-6-methyl-4-(4-(6-(trifluoromethyl)imidazo[1,2-a]pyridin-3-yl)pyrimidin-2-yl)morpholine] showed an IC50 of 10 to 100 nM.
`O=C(C1CCOCC1)N1CCN(c2ccnc(-c3cnc4ccc(C(F)(F)F)cn34)n2)CC1c1cn[nH]c1` (centres unmarked) [I-487, (2-(1H-pyrazol-4-yl)-4-(2-(6-(trifluoromethyl)imidazo[1,2-a]pyridin-3-yl)pyrimidin-4-yl)piperazin-1-yl)(tetrahydro-2H-pyran-4-yl)methanone] came in with an IC50 of 100 to 1000 nM.
Compound `Cc1nnc(C)n1[C@H]1C[C@H](C)CN(c2nccc(-c3cnc4ccc(C(F)(F)F)cn34)n2)C1` [I-465, 3-(2-((3S,5S)-3-(3,5-dimethyl-4H-1,2,4-triazol-4-yl)-5-methylpiperidin-1-yl)pyrimidin-4-yl)-6-(trifluoromethyl)imidazo[1,2-a]pyridine] showed an IC50 of 100 to 1000 nM.
Same read-out and setting: with `Cc1nn(C)cc1[C@@H]1C[C@H](C)CN(c2nccc(-c3cnc4ccc(C(F)(F)F)cn34)n2)C1` [I-141, 3-(2-((3S,5S)-3-(1,3-dimethyl-1H-pyrazol-4-yl)-5-methylpiperidin-1-yl)pyrimidin-4-yl)-6-(trifluoromethyl)imidazo[1,2-a]pyridine] the figure was 100 to 1000 nM; with `Cc1noc(C)c1C(=O)N1CCN(c2ccnc(-c3cnc4ccc(C(F)(F)F)cn34)n2)CC1c1cn[nH]c1` (centres unmarked) [I-519, (2-(1H-pyrazol-4-yl)-4-(2-(6-(trifluoromethyl)imidazo[1,2-a]pyridin-3-yl)pyrimidin-4-yl)piperazin-1-yl)(3,5-dimethylisoxazol-4-yl)methanone], 100 to 1000 nM; with `C[C@@H]1CN(c2ccnc(-c3cnc4ccc(C(F)(F)F)cn34)n2)C[C@@H](C(N)=O)O1` [I-265, (2S,6R)-6-methyl-4-(2-(6-(trifluoromethyl)imidazo[1,2-a]pyridin-3-yl)pyrimidin-4-yl)morpholine-2-carboxamide], 10 to 100 nM.
As for `CC1C(C(N)=O)NCCN1c1ccnc(-c2cnc3ccc(Cl)cn23)n1` (centres unmarked) [I-451, 4-(2-{6-chloroimidazo[1,2-a]pyridin-3-yl}pyrimidin-4-yl)-3-methylpiperazine-2-carboxamide], the IC50 lay within 10 to 100 nM.
As to `C[C@H]1[C@@H](C(N)=O)NCCN1c1ccnc(-c2cnc3ccc(C(F)(F)F)cn23)n1` [I-435, (2S,3 S)-3-methyl-4-(2-(6-(trifluoromethyl)imidazo[1,2-a]pyridin-3-yl)pyrimidin-4-yl)piperazine-2-carboxamide], the IC50 was < 10 nM.
In the case of `C[C@@H]1[C@H](C(N)=O)NCCN1c1ccnc(-c2cnc3ccc(C(F)(F)F)cn23)n1` [I-434, (2R,3R)-3-methyl-4-(2-(6-(trifluoromethyl)imidazo[1,2-a]pyridin-3-yl)pyrimidin-4-yl)piperazine-2-carboxamide], the concentration for half-maximal inhibition (IC50) was in the range of 100 to 1000 nM.
`Cc1oncc1C(=O)N1CCN(c2ccnc(-c3cnc4ccc(C(F)(F)F)cn34)n2)C[C@@H]1c1cn[nH]c1` [I-549, (S)-(2-(1H-pyrazol-4-yl)-4-(2-(6-(trifluoromethyl)imidazo[1,2-a]pyridin-3-yl)pyrimidin-4-yl)piperazin-1-yl)(5-methylisoxazol-4-yl)methanone] showed a half-maximal inhibitory concentration (IC50) of 100 to 1000 nM.
In turn, `NC(=O)C1CN(c2ccnc(-c3cnc4ccc(Cl)cn34)n2)CCO1` (centres unmarked) [I-163, 4-(2-(6-chloroimidazo[1,2-a]pyridin-3-yl)pyrimidin-4-yl)morpholine-2-carboxamide] had an IC50 of 10 to 100 nM.
`COCCN1C(C)CN(c2ccnc(-c3cnc4ccc(C(F)(F)F)cn34)n2)CC1C` (centres unmarked) [I-335, 3-(4-(4-(2-methoxyethyl)-3,5-dimethylpiperazin-1-yl)pyrimidin-2-yl)-6-(trifluoromethyl)imidazo[1,2-a]pyridine] had an IC50 of 100 to 1000 nM.
`C[C@H]1CN(c2ccnc(-c3cnc4ccc(C(F)(F)F)cn34)n2)C[C@H](C(N)=O)O1` [I-129, (2R,6 S)-6-methyl-4-(2-(6-(trifluoromethyl)imidazo[1,2-a]pyridin-3-yl)pyrimidin-4-yl)morpholine-2-carboxamide] returned an IC50 of 10 to 100 nM.
Take `C[C@@H]1C[C@H](N=S(C)(C)=O)CN(c2ccnc(-c3cnc4ccc(N5CC(F)C5)cn34)n2)C1` [I-330, (((3 S,5R)-1-(2-(6-(3-fluoroazetidin-1-yl)imidazo[1,2-a]pyridin-3-yl)pyrimidin-4-yl)-5-methylpiperidin-3-yl)imino)dimethyl-λ6-sulfanone]: the 50% inhibitory concentration (IC50) was 100 to 1000 nM.
The compound `Fc1ccc(CN2CCN(c3ccnc(-c4cnc5ccc(C(F)(F)F)cn45)n3)CC2c2cn[nH]c2)cc1` (centres unmarked) [I-457, 3-(4-(4-(4-fluorobenzyl)-3-(1H-pyrazol-4-yl)piperazin-1-yl)pyrimidin-2-yl)-6-(trifluoromethyl)imidazo[1,2-a]pyridine] had an IC50 of 10 to 100 nM.
Regarding `Fc1cccc(CN2CCN(c3ccnc(-c4cnc5ccc(C(F)(F)F)cn45)n3)CC2c2cn[nH]c2)c1` (centres unmarked) [I-458, 3-(4-(4-(3-fluorobenzyl)-3-(1H-pyrazol-4-yl)piperazin-1-yl)pyrimidin-2-yl)-6-(trifluoromethyl)imidazo[1,2-a]pyridine], the IC50 lay within 10 to 100 nM.
Regarding `C[C@H]1[C@H](c2cn[nH]c2)NCCN1c1ccnc(-c2cnc3ccc(C(F)(F)F)cn23)n1` [I-535, 3-(4-((2S,3 S)-2-methyl-3-(1H-pyrazol-4-yl)piperazin-1-yl)pyrimidin-2-yl)-6-(trifluoromethyl)imidazo[1,2-a]pyridine], the half-maximal inhibitory concentration (IC50) fell in the range of 100 to 1000 nM.
Compound `C[C@@H]1CN(c2ccnc(-c3cnc4ccc(C(F)(F)F)cn34)n2)C[C@H](C)N1S(C)(=O)=O` [I-439, 3-(4-(cis-3,5-dimethyl-4-(methylsulfonyl)piperazin-1-yl)pyrimidin-2-yl)-6-(trifluoromethyl)imidazo[1,2-a]pyridine] registered a 50% inhibitory concentration (IC50) of 100 to 1000 nM.
As to `C[C@H]1[C@H](C(N)=O)NCCN1c1ccnc(-c2cnc3cc(F)c(C4CC4)cn23)n1` [I-454, (2R,3 S)-4-(2-(6-cyclopropyl-7-fluoroimidazo[1,2-a]pyridin-3-yl)pyrimidin-4-yl)-3-methylpiperazine-2-carboxamide], the IC50 was 10 to 100 nM.
The compound `CC(=O)N1C(C)CN(c2ccnc(-c3cnc4ccc(Cl)cn34)n2)CC1c1c[nH]nc1C` (centres unmarked) [I-276, 1-(4-(2-(6-chloroimidazo[1,2-a]pyridin-3-yl)pyrimidin-4-yl)-2-methyl-6-(3-methyl-1H-pyrazol-4-yl)piperazin-1-yl)ethan-1-one] gave an IC50 of 100 to 1000 nM.
For the compound `FC(F)(F)c1ccc2ncc(-c3nccc(N4CCOC5(CNC5)C4)n3)n2c1` [I-412, 8-(2-(6-(trifluoromethyl)imidazo[1,2-a]pyridin-3-yl)pyrimidin-4-yl)-5-oxa-2,8-diazaspiro[3.5]nonane], the IC50 lay in the range of 100 to 1000 nM.

Staying with this experiment, now noted: Ki(app); 280 μM ATP, 200 μM (RS)7 peptide, 4 nM GCN2, 25° C.
Regarding `O=C1OCCC2CN(c3ccnc(-c4cnc5ccc(Cl)cn45)n3)CCN12` (centres unmarked) [I-98, 2-(2-{6-chloroimidazo[1,2-a]pyridin-3-yl}pyrimidin-4-yl)-octahydropyrazino[1,2-c][1,3]oxazin-6-one], the Ki is 10 to 100 nM.

The record behind these values is patent US10793563B2, “GCN2 inhibitors and uses thereof” (Merck Patent GmbH, priority 2018, dated 2020).
